The source of these data is patent publication US20230203041A1, “ANTAGONISTS OF THE ADENOSINE A2A RECEPTOR” (AdoRx Therapeutics Limited, priority 2020, published 2023).

Usually Ki stands for a dissociation constant, usually derived from enzyme kinetics or from competition with a known ligand.

SMILES strings stand for the structures.

Assay [1] deals with T1, human Adenosine A2a receptor (Homo sapiens, UniProt P29274).
T1 construct: expressed in transfected cells; host or cells: CHO cell membranes
T1 sequence (P29274 whole entry): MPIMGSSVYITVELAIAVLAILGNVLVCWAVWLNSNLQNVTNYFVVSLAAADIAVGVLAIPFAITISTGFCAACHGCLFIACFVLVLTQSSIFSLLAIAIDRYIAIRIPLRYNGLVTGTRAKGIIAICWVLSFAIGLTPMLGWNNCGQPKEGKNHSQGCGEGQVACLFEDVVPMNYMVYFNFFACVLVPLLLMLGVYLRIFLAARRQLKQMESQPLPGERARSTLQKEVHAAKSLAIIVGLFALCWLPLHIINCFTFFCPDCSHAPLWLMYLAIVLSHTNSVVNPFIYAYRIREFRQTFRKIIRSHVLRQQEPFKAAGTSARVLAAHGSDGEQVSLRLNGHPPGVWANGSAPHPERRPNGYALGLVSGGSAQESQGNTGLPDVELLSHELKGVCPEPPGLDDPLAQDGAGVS
Nature of the assay: Adenosine receptor TR-FRET binding assay (CA200645 displacement), A2a. The note with it: 100 nM CA200645, CHO cell membranes, 2 hours at room temperature. In general terms: Time-resolved FRET reads energy transfer from a long-lived donor to a nearby acceptor.

Assay [2] has as its target T2, human Adenosine A2b receptor (Homo sapiens, UniProt P29275).
T2 construct: expressed in transfected cells; host or cells: CHO cell membranes
T2 sequence (P29275 1-332): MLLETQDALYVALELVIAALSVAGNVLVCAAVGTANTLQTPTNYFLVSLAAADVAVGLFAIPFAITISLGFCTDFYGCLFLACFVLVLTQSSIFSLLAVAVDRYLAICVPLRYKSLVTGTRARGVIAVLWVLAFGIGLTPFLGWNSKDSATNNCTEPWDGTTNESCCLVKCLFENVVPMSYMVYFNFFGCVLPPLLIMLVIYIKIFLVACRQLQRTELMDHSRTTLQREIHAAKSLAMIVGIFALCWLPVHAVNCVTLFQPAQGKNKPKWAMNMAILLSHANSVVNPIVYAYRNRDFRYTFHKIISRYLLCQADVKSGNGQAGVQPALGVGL
Nature of the assay: Adenosine receptor TR-FRET binding assay (CA200645 displacement), A2b. The note with it: 30 nM CA200645, CHO cell membranes, 2 hours at room temperature.

The target in assay [3] is T3, human Adenosine A1 receptor (Homo sapiens, UniProt P30542).
T3 sequence (P30542 1-326): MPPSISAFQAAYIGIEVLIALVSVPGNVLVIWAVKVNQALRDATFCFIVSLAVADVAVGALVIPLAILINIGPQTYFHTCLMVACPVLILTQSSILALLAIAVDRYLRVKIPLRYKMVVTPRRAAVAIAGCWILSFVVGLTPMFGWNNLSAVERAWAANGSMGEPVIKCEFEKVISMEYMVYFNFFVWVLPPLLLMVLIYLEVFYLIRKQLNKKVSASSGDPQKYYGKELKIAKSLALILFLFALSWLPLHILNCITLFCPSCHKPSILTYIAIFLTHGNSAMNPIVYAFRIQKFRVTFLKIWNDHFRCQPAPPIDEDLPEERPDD
Nature of the assay: Adenosine receptor TR-FRET binding assay (CA200645 displacement), A1.

For assay [4], the target named is T4, human Adenosine A3 receptor (Homo sapiens, UniProt P0DMS8).
T4 sequence (P0DMS8 1-318): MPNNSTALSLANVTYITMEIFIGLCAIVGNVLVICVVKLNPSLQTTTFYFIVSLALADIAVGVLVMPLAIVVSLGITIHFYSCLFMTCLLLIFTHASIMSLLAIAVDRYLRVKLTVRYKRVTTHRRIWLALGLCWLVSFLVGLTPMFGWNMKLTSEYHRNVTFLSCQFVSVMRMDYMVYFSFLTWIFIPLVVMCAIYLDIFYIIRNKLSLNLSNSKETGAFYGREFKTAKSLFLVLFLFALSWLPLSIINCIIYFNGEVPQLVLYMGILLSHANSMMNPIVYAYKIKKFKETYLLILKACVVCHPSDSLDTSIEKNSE
Nature of the assay: Adenosine receptor TR-FRET binding assay (CA200645 displacement), A3.
Description: All FRET binding experiments were conducted at room temperature in white 384-well plates, in assay binding buffer containing 1×LabMed (Cisbio, France), 100 μg/mL saponin, 1% DMSO and 0.02% pluronic acid. Binding of the fluorescently labelled Adenosine receptor antagonist XAC (CA200645, FRET acceptor) to terbium-labelled A1, A2a, A2b and A3 adenosine receptors (FRET donors) was detected by time-resolved FRET due to the close proximity of the donor and acceptor in a binding event. To investigate the ability of unlabelled test compounds to bind to Adenosine A1, A2a, A2b and A3 receptors, dose response curves were constructed that determined the ability of a range of concentrations to inhibit the binding of 30 nM CA200645 to the A2b receptor and 100 nM CA200645 to the A1, A2a, and A3 receptor.
Serial dilution (1:3 dilutions) of test compounds in neat DMSO and transfer of a 400 nL sample of test compound into the assay plate was carried out using the Mosquito (TTP Labtech, UK). The compound samples were incubated for 2 hours at room temperature with a fixed concentration of CA200645 defined for each receptor (see above) and CHO cell membranes containing the human Adenosine A1 (0.5 μg/well), A2a (0.3 μg/well), A2b (1 μg/well) or A3 (1 μg/well) receptor in 40 μL of assay buffer. Total and non-specific binding of CA200645 was determined in the absence and presence of 10 μM XAC, respectively. Following 2 hours incubation, the level of CA200645 binding was detected on a Pherastar FSX (BMG Labtech, Germany) using standard TR-FRET settings. The terbium donor was excited with three laser flashes at a wavelength of 337 nm, and donor and acceptor emission was detected at 620 nm and 665 nm wavelengths, respectively. FRET ratios were obtained by multiplying the acceptor/donor ratio value by 10,000. Specific binding was determined by subtracting the non-specific binding FRET ratio from the total binding FRET ratio. Compound IC50 curves were analysed using GraphPad Prism 7.0 (GraphPad, USA) and Ki affinity values were determined from the obtained IC50 values using the method of Cheng and Prusoff.

As for `N#Cc1cccc(-c2nn3ccc(N)nc3c2-c2cn[nH]c2)c1` [Example 1.1], the Ki in assay [1] amounted to 147 nM; in assay [2], 239 nM; in assay [3], 95 nM.
As to `Cc1cc(-c2c(-c3cccc(C#N)c3)nn3ccc(N4CCOCC4)nc23)cc(Cl)n1` [Example 2.33], the Ki came out at 22.5 nM in assay [1], 212 nM in assay [2] and 2000 nM in assay [4].
For `Cc1cc(-c2c(-c3cccc(C#N)c3)nn3ccc(NC(C)(C)C)nc23)cc(Cl)n1` [Example 3.2], the Ki in assay [1] is 12 nM; in assay [2], 113 nM; in assay [4], above 1000 nM.
As to `Cc1cc(-c2c(-c3cccc(C#N)c3)nn3ccc(C(=O)N[C@H]4CCCNC4)nc23)cc(Cl)n1` [Example 7.4, 3-(2-Chloro-6-methyl-4-pyridyl)-2-(3-cyanophenyl)-N-[(3S)-3-piperidyl]pyrazolo[1,5-a]pyrimidine-5-carboxamide], the Ki in assay [1] was 4.1 nM; in assay [2] it was 119 nM; in assay [4], above 1000 nM.
With `Cc1cc(-c2c(-c3cccc(C#N)c3)nn3ccc(C(=O)N[C@@H]4CCCNC4)nc23)cc(Cl)n1` [Example 7.7, 3-(2-Chloro-6-methyl-4-pyridyl)-2-(3-cyanophenyl)-N-[(3R)-3-piperidyl]pyrazolo[1,5-a]pyrimidine-5-carboxamide], the inhibition constant Ki in assay [1] is 14.9 nM; in assay [2], 12 nM; in assay [4], above 1000 nM.
As for `Cc1cc(-c2c(-c3cccc(C#N)c3)nn3ccc(C(=O)O)nc23)cc(Cl)n1` [Example 9, 3-(2-Chloro-6-methyl-4-pyridyl)-2-(3-cyanophenyl)pyrazolo[1,5-a]pyrimidine-5-carboxylic acid], the values for the inhibition constant (Ki) in assay [1], in assay [2] and in assay [4] were 94 nM, 426 nM and above 1000 nM, respectively.
`CCn1nccc1-c1c(-c2cccc(C#N)c2)nn2ccc(C(=O)NCC(C)(C)O)nc12` [Example 12, 2-(3-Cyanophenyl)-3-(2-ethylpyrazol-3-yl)-N-(2-hydroxy-2-methyl-propyl)pyrazolo[1,5-a]pyrimidine-5-carboxamide]: the inhibitory constant (Ki) in assay [1] is 145 nM; in assay [2] it was 240 nM; in assay [4], above 1000 nM.
Take `CCn1nc(C)cc1-c1c(-c2cccc(C#N)c2)nn2ccc(C(=O)NCC(C)(C)O)nc12` [Example 12.1, 2-(3-Cyanophenyl)-3-(2-ethyl-5-methyl-pyrazol-3-yl)-N-(2-hydroxy-2-methyl-propyl)pyrazolo[1,5-a]pyrimidine-5-carboxamide]: the inhibitory constant (Ki) in assay [2] was found to be 1570 nM. That is a single-digit micromolar value.
Regarding `CCn1ncc(C)c1-c1c(-c2cccc(C#N)c2)nn2ccc(C(=O)NCC(C)(C)O)nc12` [Example 12.3, 2-(3-Cyanophenyl)-3-(2-ethyl-4-methyl-pyrazol-3-yl)-N-(2-hydroxy-2-methyl-propyl)pyrazolo[1,5-a]pyrimidine-5-carboxamide], the Ki was 2310 nM in assay [2] and above 1000 nM in assay [4].
`Cn1nccc1-c1c(-c2cccc(C#N)c2)nn2ccc(C(=O)NCC(C)(C)O)nc12` [Example 12.5, 2-(3-Cyanophenyl)-N-(2-hydroxy-2-methyl-propyl)-3-(2-methylpyrazol-3-yl)pyrazolo[1,5-a]pyrimidine-5-carboxamide]: the Ki in assay [2] came out at 1510 nM; in assay [3] it was 2380 nM.
As for `CC(C)(O)CNC(=O)c1ccn2nc(-c3cccc(C#N)c3)c(-c3cncs3)c2n1` [Example 12.7, 2-(3-Cyanophenyl)-N-(2-hydroxy-2-methyl-propyl)-3-thiazol-5-yl-pyrazolo[1,5-a]pyrimidine-5-carboxamide], the inhibitory constant (Ki) is 27.4 nM in assay [1], 792 nM in assay [2] and 725 nM in assay [3].
Taken in the same sequence, the figures for `Cc1cc(-c2c(-c3cccc(C#N)c3)nn3ccc(NCCO)nc23)cc(Cl)n1` [Example 19, 3-[3-(2-Chloro-6-methyl-4-pyridyl)-5-(2-hydroxyethylamino)pyrazolo[1,5-a]pyrimidin-2-yl]benzonitrile] were 0.3 nM, 4 nM and 16 nM.
Take `Cc1cc(-c2c(-c3cccc(C#N)c3)nn3ccc(N[C@@H](C)CO)nc23)cc(Cl)n1` [Example 23.3]: the values for the Ki in assay [1], in assay [2] and in assay [4] were 10.1 nM, 29 nM and above 1000 nM, respectively.
For the compound `Cc1cc(-c2c(-c3cccc(C#N)c3)nn3ccc(O[C@H]4CCNC4)nc23)cc(Cl)n1` [Example 24.2, 3-[3-(2-Chloro-6-methyl-4-pyridyl)-5-[(3S)-pyrrolidin-3-yl]oxy-pyrazolo[1,5-a]pyrimidin-2-yl]benzonitrile], the Ki in assay [1] is 12.5 nM; in assay [2], 25 nM; in assay [4], above 1000 nM.
With `Cc1cc(-c2c(-c3cccc(C#N)c3)nn3ccc(O[C@H]4CCCNC4)nc23)cc(Cl)n1` [Example 24.3, 3-[3-(2-Chloro-6-methyl-4-pyridyl)-5-[[(3S)-3-piperidyl]oxy]pyrazolo[1,5-a]pyrimidin-2-yl]benzonitrile], the Ki in assay [1] was 50.8 nM; in assay [2], 91 nM; in assay [4], above 1000 nM.
For the compound `Cc1cc(-c2c(-c3cccc(C#N)c3)nn3ccc(N)nc23)cc(C#N)n1` [Example 26.3, 4-[5-Amino-2-(3-cyanophenyl)pyrazolo[1,5-a]pyrimidin-3-yl]-6-methyl-pyridine-2-carbonitrile], the results for the inhibitory constant (Ki) in assay [1], in assay [2] and in assay [3] were 7.2 nM, 12 nM and 44 nM, respectively.
Take `Fc1ccccc1-c1cc2nc(NCc3ccccc3)ccn2n1` [Example 36, N-Benzyl-2-(2-fluorophenyl)pyrazolo[1,5-a]pyrimidin-5-amine]: the inhibition constant Ki in assay [1] is 175 nM; in assay [2] it was 1780 nM; in assay [4], above 1000 nM.
For the compound `N#Cc1c(-c2ccco2)nn2ccc(N3CCN(c4ccccc4)CC3)nc12` [Example 55, 2-(2-Furyl)-5-(4-phenylpiperazin-1-yl)pyrazolo[1,5-a]pyrimidine-3-carbonitrile], the Ki was 43.1 nM in assay [1], 2370 nM in assay [2] and above 1000 nM in assay [4].
On to `Cc1cccnc1CNc1ccn2nc(-c3cccc(F)c3)cc2n1` [Example 66.1, 2-(3-Fluorophenyl)-N-[(3-methyl-2-pyridyl)methyl]pyrazolo[1,5-a]pyrimidin-5-amine], for which the results for the inhibition constant Ki in assay [1], in assay [2] and in assay [4] were 72 nM, 1200 nM and above 1000 nM, respectively.
As to `Fc1cccc(-c2cc3nc(NCCc4ccccc4)ccn3n2)c1` [Example 66.2, 2-(3-Fluorophenyl)-N-(2-phenylethyl)pyrazolo[1,5-a]pyrimidin-5-amine], the inhibition constant Ki was determined as 284 nM in assay [1], 2160 nM in assay [2] and 25 nM in assay [4].
With `Fc1cccc(-c2cc3nc(NCc4nc5ccccc5[nH]4)ccn3n2)c1` [Example 66.3, N-(1H-Benzimidazol-2-ylmethyl)-2-(3-fluorophenyl)pyrazolo[1,5-a]pyrimidin-5-amine], the Ki in assay [1] turned out to be 492 nM; in assay [2] it was 2430 nM; in assay [3] it was 102 nM.
For the compound `Fc1cccc(-c2nn3ccc(NCc4ccccc4)nc3c2Cl)c1` [Example 67, N-Benzyl-3-chloro-2-(3-fluorophenyl)pyrazolo[1,5-a]pyrimidin-5-amine], the inhibitory constant (Ki) is 120 nM in assay [1], 7470 nM in assay [2] and above 1000 nM in assay [4].
For the compound `Fc1cccc(-c2nn3ccc(NCc4ccccc4)nc3c2Br)c1` [Example 69, N-Benzyl-3-bromo-2-(3-fluorophenyl)pyrazolo[1,5-a]pyrimidin-5-amine], the inhibitory constant (Ki) in assay [1] was 141 nM; in assay [2], 10000 nM; in assay [4], above 1000 nM.
For `Nc1ccn2nc(-c3cccc(F)c3)c(Br)c2n1` [Example 71, 3-Bromo-2-(3-fluorophenyl)pyrazolo[1,5-a]pyrimidin-5-amine], in that order: 197 nM, 3860 nM and above 1000 nM.
For `O=C(O)c1c(-c2ccco2)nn2ccc(NCc3ccccc3)nc12` [Example 76, 5-(Benzylamino)-2-(2-furyl)pyrazolo[1,5-a]pyrimidine-3-carboxylic acid], the inhibition constant Ki was 116 nM in assay [1], 2430 nM in assay [2] and 2540 nM in assay [3].
